Assay results: patent publication US12162836B2, “N-acyl-{4-[(4-aryl-phenyl)sulfonylmethyl]piperidine} compounds and their therapeutic use” (Modern Biosciences Limited, priority 2019, dated 2024)
Converted amounts (≈) assume the structure as drawn.

Experiments:
human hepatocytes = assay: Human Hepatocyte Stability; assay type: in vitro ADME; conditions: for metabolic stability (in words): human hepatocytes
Protocol: (§1) Metabolic stability of test compounds was measured by determination of the rate of disappearance of the compound when incubated in the presence of human hepatocytes, a primary source of the most important enzymes (cytochrome P450s) involved in drug metabolism. Study of drug stability in the presence of primary hepatocytes is accepted as a valuable model permitting rapid prediction of in vivo drug stability.
(§2) Human hepatocytes were obtained from a commercial source and viability was assessed using a trypan blue solution prior to use. Test compounds (final concentration 1 μM, 0.1 DMSO, 0.9% acetonitrile) or a marker (diclofenac or diltiazem, final assay concentration 1 μM, 0.1% DMSO, 0.9% acetonitrile) were incubated with pooled hepatocytes for a 60 minute period and samples removed at up to 6 time points and analysed by LC-MS/MS for the presence/amount of test compounds.
(§3) Each compound was incubated for 0, 5, 15, 30, 45, or 60 minutes. The reactions were stopped by the addition of methanol containing an internal standard (1 μM Tolbutamide) at the appropriate time points, mixed and placed at −20° C. for 1 hour to quench and allow protein to precipitate. All samples were centrifuged (2500× g, 20 minutes, 4° C.). The aliquots were analysed using LC-MS/MS. Reactions were performed in duplicate at 37° C.
(§4) Data were processed, and the results plotted as In(concentration) vs. time. The elimination rate constant (slope of the regression line, k) was calculated using the following formula, where C(t) is the concentration at time t and C(0) is the starting concentration:
(§5) The half-life (t1/2) was calculated using the following formula: […]
(§6) The intrinsic clearance (Clint) was calculated using the following formula, where [cell] is the hepatocyte concentration in the assay: […]

[1] = system: Thp1 human monocytic cells; assay: Thp1 Monocyte ATP Production Assay (ATPlite); assay type: cell-based; conditions: Thp1 cells, 24 hour incubation, mean of 2 independent experiments
Protocol: In vitro potency of test compounds was determined by incubation with Thp1 human monocytic cells and subsequent determination of Adenosine TriPhosphate (ATP) levels using firefly luciferase.
ATP is present in all metabolically active cells. When cells lose integrity, their ability to synthesise ATP is rapidly lost. […] See, e.g., Kang et al., 2015; Jiang et al., 2013. Levels of ATP can be monitored using a system based on firefly (Photinus pyralis) luciferase (see, e.g., Auld et al., 2009) using commercially available kits. A system known as ATPlite™ was using to measure effects of the test compounds on cellular viability in vitro. This one-step assay system is an adenosine triphosphate (ATP) monitoring system based on the production of light caused by the reaction of ATP from the cells with added luciferase and D-luciferin, as illustrated in the reaction scheme below:
Thp1 cells were plated at 112500 cells per well in 125 μL RPMI-1640 (no glucose) with 1% FBS in 96-well plates. Test compounds were prepared as 100 mM solutions in DMSO. These stock solutions were diluted in DMSO and then diluted 1000× in culture medium (RPMI) before being added directly to the wells so as to give the desired final compound concentration. After a 24 hour incubation at 37° C./5% CO2, ATPLite™ (Perkin Elmer) was added to each well (1:10 v/v, 10 μL). The plate was then incubated at room temperature for 5 minutes and the emitted light was quantified on Viewlux with a measurement time of 0.3 seconds and binning 4×4.
The average results for each test compound were expressed as a percent (%) of the average control value reflecting cell viability. The average values across the concentrations tested were then plotted and the IC50 for was calculated by fitting the data to a 4-parameter IC50 equation using software from Graf it (Erithacus Software). Each experiment was repeated twice and the data are presented as the mean IC50 from both experiments.

[2] = Aqueous solubility in FaSSIF; assay type: physicochemical; conditions: for solubility at 16 h: kinetic from dmso stock, pH 6.5, 16 hours, room temperature
Protocol: Aqueous solubility was measured by equilibration of compounds with fasted state simulated intestinal fluid (FaSSIF) and quantified spectrophotometrically.
Preparation of blank FaSSIF: 0.21 g of sodium hydroxide (NaOH) pellets, 1.97 g of dihydrogen sodium phosphate (NaH2PO4.2H2O) and 3.09 g of sodium chloride (NaCl) were dissolved in 400 mL of deionised water. The pH was adjusted to 6.5 using 1 M hydrochloric acid and further deionised water added to a final volume of 500 mL.
Preparation of FaSSIF: 0.056 g of SIF Powder (containing sodium taurocholate and lecithin) (Pharses A G) was dissolved in 25 mL of blank FaSSIF and stirred until the powder was completely dissolved. The solution was allowed to stand for 2 hours during which it became opalescent; it was used within 24 hours. The final solution composition was characterised as follows: • Sodium taurocholate: 3 mM • Lecithin: 0.75 mM • Osmolarity: 270±10 mOsmol • pH: 6.5
The optical density was measured at the end of the incubation period for test compounds and a reference used to determine solubility. In brief, two samples were prepared for each determination: a reference sample consisting of a stock solution of test compound in DMSO diluted in system solution (a phosphate free, low absorption buffer) and propanol; and a test sample (prepared in triplicate) consisting of 0.5 mL FaSSIF spiked with test compound at 0.2 mM. Each sample was incubated at room temperature for 16 hours with constant shaking at 250 rpm. At the end of the incubation period, 0.3 mL of each sample was filtered through a pION filter plate (PION, Woburn MA), diluted 1:1 with propanol and scanned using UV spectrophotometry at Amax ([…]) using a Spectra Max Plus—Version 2.1000 (Molecular Devices, Sunnyvale, CA), with pSOL Explorer solubility determination software (pION, Woburn, MA).
FaSSIF solubility was calculated using the following formula:
[formula] • wherein: • “OD” is the optical density; • “Cr” is the concentration of the reference (33.4 μM); and • “molecular weight” is for the test compound (e.g., 381.44 for ABD735).

[3] = Human Hepatocyte Stability; assay type: in vitro ADME; conditions: pooled human hepatocytes, 1 μM, 60 minute incubation; for half-life at 1 μM: read-out: Human t1/2
Protocol: as §1, §2, §3, §4, §5, §6

hERG = hERG (Homo sapiens (Human), UniProt Q12809); assay: hERG Ion Channel binding assay (3H astemizole displacement); conditions: human, membranes of HEK293 cells stably expressing hERG, pH 7.4, probe 3H astemizole (1.5 nM); 30 μM; displacement of 3H astemizole, hERG-HEK293 membranes
hERG, sequence (Q12809 whole entry): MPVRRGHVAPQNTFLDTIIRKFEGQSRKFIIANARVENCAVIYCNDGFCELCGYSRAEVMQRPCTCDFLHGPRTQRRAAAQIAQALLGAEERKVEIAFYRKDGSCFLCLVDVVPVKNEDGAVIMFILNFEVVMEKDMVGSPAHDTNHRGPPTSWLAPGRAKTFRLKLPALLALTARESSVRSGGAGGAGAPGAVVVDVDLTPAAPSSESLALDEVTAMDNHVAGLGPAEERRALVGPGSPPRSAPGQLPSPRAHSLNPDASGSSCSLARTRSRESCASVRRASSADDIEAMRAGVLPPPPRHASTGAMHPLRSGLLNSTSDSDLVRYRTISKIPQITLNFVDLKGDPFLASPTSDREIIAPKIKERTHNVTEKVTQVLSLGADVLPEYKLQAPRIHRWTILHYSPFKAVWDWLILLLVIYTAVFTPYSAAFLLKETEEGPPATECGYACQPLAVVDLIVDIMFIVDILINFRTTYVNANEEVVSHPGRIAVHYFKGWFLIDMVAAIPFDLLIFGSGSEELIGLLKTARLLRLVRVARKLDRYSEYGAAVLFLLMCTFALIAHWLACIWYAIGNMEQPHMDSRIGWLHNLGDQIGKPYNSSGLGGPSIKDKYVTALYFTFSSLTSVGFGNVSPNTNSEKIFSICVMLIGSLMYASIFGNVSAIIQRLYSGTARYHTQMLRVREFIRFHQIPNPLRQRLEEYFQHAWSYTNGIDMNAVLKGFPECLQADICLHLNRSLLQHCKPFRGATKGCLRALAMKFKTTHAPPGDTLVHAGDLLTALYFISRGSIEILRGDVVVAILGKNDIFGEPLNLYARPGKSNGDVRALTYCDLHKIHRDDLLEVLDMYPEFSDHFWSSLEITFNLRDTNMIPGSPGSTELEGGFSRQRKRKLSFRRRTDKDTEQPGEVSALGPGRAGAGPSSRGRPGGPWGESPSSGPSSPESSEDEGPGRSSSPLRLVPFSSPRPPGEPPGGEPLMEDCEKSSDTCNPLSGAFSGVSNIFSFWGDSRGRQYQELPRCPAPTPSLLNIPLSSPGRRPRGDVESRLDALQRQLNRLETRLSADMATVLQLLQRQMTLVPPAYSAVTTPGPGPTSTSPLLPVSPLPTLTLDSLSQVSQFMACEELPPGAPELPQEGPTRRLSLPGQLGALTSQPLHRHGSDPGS
Protocol: The activity of the compounds against the hERG ion channel was tested using a binding assay in stably transfected Human Embryonic Kidney cells (hERG-HEK293). hERG-HEK293 cells were cultured in MEM medium (Invitrogen)+10% FBS, glutamine and non-essential amino acids at 37° C. To prepare membranes, cells were homogenised on ice, centrifuged at 650×g for 10 minutes at +4° C., and the resulting supernatant centrifuged at 48000×g for 10 minutes at +4° C. The pellet was resuspended in ice-cold 50 mM Tris-HCl buffer, 5 mM KCl (pH 8.5) and stored frozen in aliquots until use.
For binding assays, membranes were thawed, re-suspended in assay buffer (10 mM HEPES pH 7.4, 0.1% BSA, 5 mM potassium chloride, 0.8 mM magnesium chloride, 130 mM sodium chloride, 1 mM sodium-EGTA, 10 mM glucose) and incubated with ^3H astemizole (1.5 nM), and with or without test compound at 25° C. for 60 minutes. Binding was determined following filtration of the membranes and washing in Tris-HCl buffer by scintillation counting of ^3H astemizole.
The degree of binding of compounds to the hERG ion channel (%) was obtained by measuring the binding of ^3H astemizole and its displacement by test compound. A value of 0% indicates no binding and a value of 100% indicates complete displacement of the radiolabelled ligand.

[4] = pooled human hepatocytes, 1 μM, 60 minute incubation
[5] = Homo sapiens, THP-1, 9-point concentration range from 10 μM to 10 nM

hepatocyte CLint at 1 μM [3] | half-life at 1 μM [3] | metabolic stability (in words) (human hepatocytes) | IC50 [1, 5] | solubility at 16 h [2] | Structure (SMILES) | inhibition at 60 min, 30 µM (hERG) | also measured
 |  |  |  |  | CC1(O)CCC(NS(=O)(=O)c2ccc(-c3ccc(F)cc3F)cc2)CC1 (stereo not shown) [ABD900, reference compound] |  | Human Clint (human hepatocytes; [4]): 6.3 uL/min/million cells; Human t1/2 (human hepatocytes; [4]): 3.67 h; IC50 ([1]; 9-point concentration range from 10 μM to 10 nM): 1.1 µM; Solubility ([2]; pH 6.8): 120 µg/mL (≈ 315 µM)
< 3 µL/min/1e6 cells | > 7.67 h | exceptionally good stability | 7.9 µM | 32 µg/mL (≈ 81.3 µM) | CC(=O)N1CCC(CS(=O)(=O)c2ccc(-c3ccc(F)c(F)c3)cc2)CC1 [NASMP-02, 1-(4-(((3′,4′-Difluoro-[1,1′-biphenyl]-4-yl)sulfonyl)methyl)piperidin-1-yl)ethan-1-one] | 30% | 
< 3 µL/min/1e6 cells | > 7.67 h | exceptionally good stability | 3 µM | 42 µg/mL (≈ 107 µM) | CC(=O)N1CCC(CS(=O)(=O)c2ccc(-c3cc(F)ccc3F)cc2)CC1 [NASMP-03, 1-(4-(((2′,5′-Difluoro-[1,1′-biphenyl]-4-yl)sulfonyl)methyl)piperidin-1-yl)ethan-1-one] | 20% | 
 |  |  | 1.7 µM |  | CC(=O)N1CCC(CS(=O)(=O)c2ccc(-c3ccc(C#N)cc3F)cc2)CC1 [NASMP-04, 4′-(((1-Acetylpiperidin-4-yl)methyl)sulfonyl)-2-fluoro-[1,1′-biphenyl]-4-carbonitrile] |  | 
 |  |  | 3.8 µM |  | CC(=O)N1CCC(CS(=O)(=O)c2ccc(-c3cccc(F)c3F)cc2)CC1 [NASMP-08, 1-(4-(((2′,3′-Difluoro-[1,1′-biphenyl]-4-yl)sulfonyl)methyl)piperidin-1-yl)ethan-1-one] |  | 
 |  |  | 3.5 µM |  | CC(=O)N1CCC(CS(=O)(=O)c2ccc(-c3ccc(C#N)cc3)c(F)c2)CC1 [NASMP-10, 4′-(((1-Acetylpiperidin-4-yl)methyl)sulfonyl)-2′-fluoro-[1,1′-biphenyl]-4-carbonitrile] |  | 
3.3 µL/min/1e6 cells | > 1 h |  | 1.6 µM |  | CC(=O)N1CCC(CS(=O)(=O)c2ccc(-c3ncc(F)cc3F)c(F)c2)CC1 [NASMP-11, 1-(4-(((4-(3,5-Difluoropyridin-2-yl)-3-fluorophenyl)sulfonyl)methyl)piperidin-1-yl)ethan-1-one] |  | 
 |  |  | 1.7 µM |  | CC(=O)N1CCC(CS(=O)(=O)c2ccc(-c3ccc(F)cc3F)c(C#N)c2)CC1 [NASMP-13, 4-(((1-Acetylpiperidin-4-yl)methyl)sulfonyl)-2′,4′-difluoro-[1,1′-biphenyl]-2-carbonitrile] |  | 
28.2 µL/min/1e6 cells | 0.97 h |  | 1.4 µM |  | CN(C)C(=O)N1CCC(CS(=O)(=O)c2ccc(-c3ccc(F)cc3F)cc2)CC1 [NASMP-14, 4-(((2′,4′-Difluoro-[1,1′-biphenyl]-4-yl)sulfonyl)methyl)-N,N-dimethylpiperidine-1-carboxamide] |  | 
 | > 1 h | exceptionally good stability | 1.5 µM |  | CC(=O)N1CCC(C)(CS(=O)(=O)c2ccc(-c3ccc(Cl)cc3C#N)cc2)CC1 [NASMP-16, 4′-(((1-Acetyl-4-methylpiperidin-4-yl)methyl)sulfonyl)-4-chloro-[1,1′-biphenyl]-2-carbonitrile] |  | 
11.7 µL/min/1e6 cells | 1.92 h |  | 2.8 µM | 27 µg/mL (≈ 62.9 µM) | CC(=O)N1CCC(C(F)(F)S(=O)(=O)c2ccc(-c3ccc(F)cc3F)cc2)CC1 [NASMP-19, 1-(4-(((2′,4′-Difluoro-[1,1′-biphenyl]-4-yl)sulfonyl)difluoromethyl)piperidin-1-yl)ethan-1-one] | 21% | 
< 3 µL/min/1e6 cells | > 7.67 h | exceptionally good stability |  | 37 µg/mL (≈ 94 µM) | CC(=O)N1CCC(CS(=O)(=O)c2ccc(-c3cc(F)cc(F)c3)cc2)CC1 [NASMP-20, 1-(4-(((3′,5′-Difluoro-[1,1′-biphenyl]-4-yl)sulfonyl)methyl)piperidin-1-yl)ethan-1-one] | 39% | IC50 ([1]; Homo sapiens, THP-1, 8-point concentration range from 100 μM to 100 nM): 18.1 µM
